Results: ChEMBL document CHEMBL5465560, “Selectivity Literature for EUbOPEN Chemogenomic Library” (2024)
Each block holds one molecule with its values, some of them ahead of it.

Experiments:
[1] = molecular target: T1, cGMP-dependent protein kinase 1 (Homo sapiens) (UniProt Q13976); conditions: at 10 µM
T1 sequence (whole entry): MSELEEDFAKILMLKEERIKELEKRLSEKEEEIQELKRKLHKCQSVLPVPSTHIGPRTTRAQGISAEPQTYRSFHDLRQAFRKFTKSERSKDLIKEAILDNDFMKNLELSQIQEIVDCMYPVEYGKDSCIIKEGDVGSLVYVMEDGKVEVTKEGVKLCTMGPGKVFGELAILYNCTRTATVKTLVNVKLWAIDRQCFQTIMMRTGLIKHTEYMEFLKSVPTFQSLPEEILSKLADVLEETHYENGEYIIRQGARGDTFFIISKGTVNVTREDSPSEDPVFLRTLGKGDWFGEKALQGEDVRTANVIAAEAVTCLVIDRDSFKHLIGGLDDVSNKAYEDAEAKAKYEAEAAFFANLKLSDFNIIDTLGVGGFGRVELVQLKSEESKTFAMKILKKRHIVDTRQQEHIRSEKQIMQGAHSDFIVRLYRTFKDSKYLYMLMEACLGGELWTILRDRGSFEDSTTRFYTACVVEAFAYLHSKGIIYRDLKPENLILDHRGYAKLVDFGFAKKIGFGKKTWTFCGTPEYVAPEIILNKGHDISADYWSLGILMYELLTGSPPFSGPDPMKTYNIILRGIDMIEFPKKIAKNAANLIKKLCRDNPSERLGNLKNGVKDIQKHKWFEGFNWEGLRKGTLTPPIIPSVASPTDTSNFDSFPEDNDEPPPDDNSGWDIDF

[2] = molecular target: Cyclin-dependent kinase 4/cyclin D1 (Homo sapiens) (UniProt P11802+P24385); experiment: Selectivity interaction (KinomeScan (DiscoverX)) EUB0001079a CDK4; type: protein-complex assay; conditions: at 1 µM
[3] = molecular target: Mitogen-activated protein kinase kinase kinase 1 (Homo sapiens, UniProt Q13233); experiment: Selectivity interaction (KinomeScan (DiscoverX)) EUB0001619a MAP3K1; conditions: at 1 µM
Chain of Mitogen-activated protein kinase kinase kinase 1 (Q13233 whole entry): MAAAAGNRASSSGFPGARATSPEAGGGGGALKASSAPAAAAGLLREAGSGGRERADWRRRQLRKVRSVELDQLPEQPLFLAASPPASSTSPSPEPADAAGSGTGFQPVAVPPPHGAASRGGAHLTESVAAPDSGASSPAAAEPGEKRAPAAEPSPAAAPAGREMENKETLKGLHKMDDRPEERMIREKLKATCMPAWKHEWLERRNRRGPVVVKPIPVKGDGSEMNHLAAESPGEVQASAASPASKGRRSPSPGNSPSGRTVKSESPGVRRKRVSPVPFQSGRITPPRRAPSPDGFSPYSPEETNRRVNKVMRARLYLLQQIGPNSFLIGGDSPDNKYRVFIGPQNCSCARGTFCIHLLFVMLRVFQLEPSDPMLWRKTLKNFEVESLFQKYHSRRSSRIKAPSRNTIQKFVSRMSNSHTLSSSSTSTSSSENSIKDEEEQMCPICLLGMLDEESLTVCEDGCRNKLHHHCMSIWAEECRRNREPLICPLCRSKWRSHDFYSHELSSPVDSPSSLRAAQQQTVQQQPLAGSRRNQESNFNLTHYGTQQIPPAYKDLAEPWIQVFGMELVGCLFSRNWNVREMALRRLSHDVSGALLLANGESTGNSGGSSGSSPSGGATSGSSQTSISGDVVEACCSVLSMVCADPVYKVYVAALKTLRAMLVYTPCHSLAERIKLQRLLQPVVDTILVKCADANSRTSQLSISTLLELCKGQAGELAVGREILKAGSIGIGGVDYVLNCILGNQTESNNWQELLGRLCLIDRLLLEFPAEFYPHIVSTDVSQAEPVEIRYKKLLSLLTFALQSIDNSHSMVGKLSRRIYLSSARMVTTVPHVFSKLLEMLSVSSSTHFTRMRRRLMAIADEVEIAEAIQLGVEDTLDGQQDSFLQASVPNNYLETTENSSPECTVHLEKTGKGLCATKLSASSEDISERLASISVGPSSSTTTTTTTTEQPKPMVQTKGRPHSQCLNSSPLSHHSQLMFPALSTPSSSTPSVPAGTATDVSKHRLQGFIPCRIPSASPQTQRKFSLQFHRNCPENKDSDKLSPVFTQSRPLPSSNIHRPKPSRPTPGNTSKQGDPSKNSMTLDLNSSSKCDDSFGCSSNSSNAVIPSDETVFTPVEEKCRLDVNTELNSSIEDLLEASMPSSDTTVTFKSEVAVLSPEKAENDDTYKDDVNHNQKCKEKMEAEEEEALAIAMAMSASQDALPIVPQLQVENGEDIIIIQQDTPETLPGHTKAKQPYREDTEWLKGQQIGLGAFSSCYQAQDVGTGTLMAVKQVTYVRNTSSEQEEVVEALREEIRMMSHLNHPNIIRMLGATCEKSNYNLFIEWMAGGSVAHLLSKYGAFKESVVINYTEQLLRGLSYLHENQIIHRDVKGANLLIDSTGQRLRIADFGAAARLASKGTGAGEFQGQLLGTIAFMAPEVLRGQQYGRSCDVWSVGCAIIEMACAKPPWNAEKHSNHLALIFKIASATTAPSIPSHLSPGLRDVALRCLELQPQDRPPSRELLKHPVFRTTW

[4] = molecular target: T2, Serine/threonine-protein kinase greatwall (Homo sapiens) (UniProt Q96GX5); experiment: Selectivity interaction (ActivX KiNativ screen (kinase selectivity in THP-1 cell lysates)) EUB0000639a MASTL; type: subcellular; conditions: lysate, at 1 µM
T2 sequence (whole entry): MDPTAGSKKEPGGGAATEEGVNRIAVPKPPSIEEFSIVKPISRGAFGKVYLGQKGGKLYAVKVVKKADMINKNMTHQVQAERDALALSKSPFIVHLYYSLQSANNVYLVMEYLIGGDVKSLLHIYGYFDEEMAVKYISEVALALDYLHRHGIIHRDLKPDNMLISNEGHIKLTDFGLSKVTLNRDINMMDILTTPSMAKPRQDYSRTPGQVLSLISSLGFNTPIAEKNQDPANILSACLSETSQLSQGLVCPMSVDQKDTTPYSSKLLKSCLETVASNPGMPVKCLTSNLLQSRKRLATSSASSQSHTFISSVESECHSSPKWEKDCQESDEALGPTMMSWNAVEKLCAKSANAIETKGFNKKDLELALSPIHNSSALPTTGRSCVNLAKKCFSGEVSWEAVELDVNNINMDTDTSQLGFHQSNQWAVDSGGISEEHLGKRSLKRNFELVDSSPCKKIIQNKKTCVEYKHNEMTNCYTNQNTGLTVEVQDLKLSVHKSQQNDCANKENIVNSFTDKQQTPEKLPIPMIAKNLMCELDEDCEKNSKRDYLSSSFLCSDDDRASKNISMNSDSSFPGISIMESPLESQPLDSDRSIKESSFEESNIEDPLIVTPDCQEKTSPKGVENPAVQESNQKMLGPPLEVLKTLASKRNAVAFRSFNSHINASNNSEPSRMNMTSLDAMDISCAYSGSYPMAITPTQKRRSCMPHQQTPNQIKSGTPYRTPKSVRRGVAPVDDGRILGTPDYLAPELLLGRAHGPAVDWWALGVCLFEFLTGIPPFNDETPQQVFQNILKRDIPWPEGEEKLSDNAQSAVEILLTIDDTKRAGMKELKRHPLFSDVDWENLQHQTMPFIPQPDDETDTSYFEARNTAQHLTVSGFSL

[5] = molecular target: T3, Inhibitor of nuclear factor kappa-B kinase subunit alpha (Homo sapiens) (UniProt O15111); experiment: Selectivity interaction (ProQinase) EUB0000171b CHUK
T3 sequence (whole entry): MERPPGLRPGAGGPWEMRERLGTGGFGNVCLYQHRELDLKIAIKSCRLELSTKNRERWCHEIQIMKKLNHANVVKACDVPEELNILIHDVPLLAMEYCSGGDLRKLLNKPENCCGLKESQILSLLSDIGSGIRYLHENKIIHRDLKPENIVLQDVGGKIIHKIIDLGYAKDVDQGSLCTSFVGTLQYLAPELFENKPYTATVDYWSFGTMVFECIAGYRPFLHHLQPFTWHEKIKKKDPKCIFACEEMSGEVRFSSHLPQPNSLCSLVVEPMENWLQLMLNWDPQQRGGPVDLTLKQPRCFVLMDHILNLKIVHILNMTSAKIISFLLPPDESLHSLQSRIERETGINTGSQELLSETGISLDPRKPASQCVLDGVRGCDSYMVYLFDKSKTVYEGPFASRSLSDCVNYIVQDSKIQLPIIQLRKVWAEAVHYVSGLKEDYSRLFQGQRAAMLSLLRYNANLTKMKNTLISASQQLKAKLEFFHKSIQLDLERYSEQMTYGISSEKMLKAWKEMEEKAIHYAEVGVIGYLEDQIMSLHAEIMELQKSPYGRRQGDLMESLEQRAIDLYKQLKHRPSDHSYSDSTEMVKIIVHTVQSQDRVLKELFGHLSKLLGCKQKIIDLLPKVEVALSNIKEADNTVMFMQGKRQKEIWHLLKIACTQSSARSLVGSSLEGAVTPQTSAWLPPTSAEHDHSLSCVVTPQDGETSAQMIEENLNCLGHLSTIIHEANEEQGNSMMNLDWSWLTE

[6] = molecular target: Serine/threonine-protein kinase pim-3 (Homo sapiens) (UniProt Q86V86); experiment: Selectivity interaction (KinomeScan (DiscoverX)) EUB0000666a PIM3; conditions: at 10 µM
[7] = molecular target: STE20-like serine/threonine-protein kinase (Homo sapiens, UniProt Q9H2G2); experiment: Selectivity interaction (KinomeScan (DiscoverX)) EUB0000695a SLK; conditions: at 100 nM
Chain of STE20-like serine/threonine-protein kinase (Q9H2G2 whole entry, looked up): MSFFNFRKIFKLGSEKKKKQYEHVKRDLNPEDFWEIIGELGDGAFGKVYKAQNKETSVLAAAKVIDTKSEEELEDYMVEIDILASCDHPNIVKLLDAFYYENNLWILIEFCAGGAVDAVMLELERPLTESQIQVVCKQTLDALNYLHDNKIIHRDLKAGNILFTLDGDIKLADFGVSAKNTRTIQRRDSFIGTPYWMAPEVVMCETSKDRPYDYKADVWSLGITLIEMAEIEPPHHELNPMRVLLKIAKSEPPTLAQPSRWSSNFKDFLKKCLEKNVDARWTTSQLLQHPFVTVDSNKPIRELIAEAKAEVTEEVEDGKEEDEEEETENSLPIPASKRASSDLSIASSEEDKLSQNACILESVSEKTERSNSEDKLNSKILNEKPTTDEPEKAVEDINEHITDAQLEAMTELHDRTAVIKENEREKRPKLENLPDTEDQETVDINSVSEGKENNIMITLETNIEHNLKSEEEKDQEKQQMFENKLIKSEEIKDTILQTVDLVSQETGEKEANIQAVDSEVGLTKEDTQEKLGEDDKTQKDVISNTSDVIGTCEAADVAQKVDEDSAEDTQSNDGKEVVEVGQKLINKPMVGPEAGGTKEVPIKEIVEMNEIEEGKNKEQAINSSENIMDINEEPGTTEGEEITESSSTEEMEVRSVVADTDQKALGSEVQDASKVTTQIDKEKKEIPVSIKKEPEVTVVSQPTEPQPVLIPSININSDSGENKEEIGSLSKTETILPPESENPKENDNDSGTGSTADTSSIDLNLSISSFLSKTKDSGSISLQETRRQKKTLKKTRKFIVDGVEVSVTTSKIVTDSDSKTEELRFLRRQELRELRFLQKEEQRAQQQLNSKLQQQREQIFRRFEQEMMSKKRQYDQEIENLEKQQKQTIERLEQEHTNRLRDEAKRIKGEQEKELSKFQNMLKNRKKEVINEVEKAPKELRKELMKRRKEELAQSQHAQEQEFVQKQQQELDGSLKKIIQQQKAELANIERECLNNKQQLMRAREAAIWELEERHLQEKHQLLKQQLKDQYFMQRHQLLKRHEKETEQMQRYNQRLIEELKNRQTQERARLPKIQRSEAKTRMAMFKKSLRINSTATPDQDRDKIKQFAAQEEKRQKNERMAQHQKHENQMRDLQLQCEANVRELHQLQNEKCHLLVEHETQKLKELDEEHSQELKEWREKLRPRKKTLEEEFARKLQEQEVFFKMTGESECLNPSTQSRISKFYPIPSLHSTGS

% of control [1]: 100%
Compound: CCN(CC)CCCCNc1ncc2cc(-c3cc(OC)cc(OC)c3)c(NC(=O)NC(C)(C)C)nc2n1

Compound: Nc1cnc(N2CCc3cc(S(=O)(=O)Nc4c(F)cc(Cl)cc4F)cc(N4CCCC4=O)c32)nc1 [TP-020n]
% of control [2]: 97%

Compound: N#Cc1cccc(-c2c[nH]c3ncnc(N4CCOCC4)c23)c1
% of control [3]: 82%

% of inhibition [4]: 35.1%
Compound: CC[C@@H]1[C@H](F)C(=O)N[C@@H]1COc1nccc2cc(C(N)=O)c(OC)cc12 [ZIMLOVISERTIB]

% of control ([5]; at 1 µM): 78%
% of control ([5]; at 5 µM): 57%
Compound: C=CC(=O)Nc1cccc(C(=O)Nc2ccc(Nc3cc(-c4[nH]c(SC)nc4C)ccn3)cc2)c1

Compound: O=C(NOC[C@H](O)CO)c1ccc(F)c(F)c1Nc1ccc(I)cc1F
% of control [6]: 100%

Compound: Cc1cc(F)c(C(=O)Nc2cccc(-c3nncn3C(C)C)n2)cc1-n1cnc(C2CC2)c1
% of control [7]: 77%
